Test results published in patent US20220054513A1, “COMBINATION COMPOSITIONS COMPRISING A BETA-LACTAMASE INHIBITOR” (VenatoRx Pharmaceuticals, Inc., priority 2018, published 2022).
Like-named read-outs stand apart in the source and are kept apart here.

What was measured:
[1] = test system: Acinetobacter baumannii-calcoaceticus species complex clinical isolates; experiment: MIC of triple combinations (Compound 1, sulbactam, meropenem or cefepime), 141 clinical isolates; type: cell-based; details: Acinetobacter, Cmpd 1 at 4 μg/mL in combinations, read-out: MIC
Source text: For a more comprehensive assessment of the ability of test compounds to potentiate sulbactam in triple combinations with β-lactams additional MIC assays were utilized.

[2] = test system: multi-drug resistant Acinetobacter baumannii; experiment: broth microdilution MIC of sulbactam, ampicillin, cefepime and combinations +/- Compound 1, panel of 51 Acinetobacter isolates

MIC ([1]; strain 990089): 64 µg/mL | MIC ([1]; strain 993131): 64 µg/mL | MIC ([1]; strain 994180): 32 µg/mL | MIC ([1]; strain 996612): > 512 µg/mL | MIC ([1]; strain 996707): 64 µg/mL | MIC ([1]; strain 996869): 32 µg/mL | MIC ([1]; strain 997574): 16 µg/mL | MIC ([1]; strain 998532): 64 µg/mL | MIC ([1]; strain 998907): 8 µg/mL | MIC ([1]; strain 999306): 8 µg/mL | MIC ([1]; strain 1001611): 16 µg/mL | MIC ([1]; strain 1002208): 64 µg/mL | MIC ([1]; strain 1002247): > 512 µg/mL | MIC ([1]; strain 1002688): 64 µg/mL | MIC ([1]; strain 1002952): 64 µg/mL | MIC ([1]; strain 1003557): 64 µg/mL | MIC ([1]; strain 1003787): > 512 µg/mL | MIC ([1]; strain 1008510): 64 µg/mL | MIC ([1]; strain 1008730): 64 µg/mL | MIC ([1]; strain 1010245): 64 µg/mL | MIC ([1]; strain 1010331): > 512 µg/mL | MIC ([1]; strain 1010950): > 512 µg/mL | MIC ([1]; strain 1011959): 64 µg/mL | MIC ([1]; strain 1013022): 64 µg/mL | MIC ([1]; strain 1013035): 32 µg/mL | MIC ([1]; strain 1014143): 32 µg/mL | MIC ([1]; strain 1014646): 64 µg/mL | MIC ([1]; strain 1016836): 64 µg/mL | MIC ([1]; strain 1018109): 2 µg/mL | MIC ([1]; strain 1018801): > 512 µg/mL | MIC ([1]; strain 1023207): 32 µg/mL | MIC ([1]; strain 1024119): 32 µg/mL | MIC ([1]; strain 1024215): 32 µg/mL | MIC ([1]; strain 1027234): 64 µg/mL | MIC ([1]; strain 1027603): 64 µg/mL | MIC ([1]; strain 1027748): 32 µg/mL | MIC ([1]; strain 1028193): 32 µg/mL | MIC ([1]; strain 1029913): 32 µg/mL | MIC ([1]; strain 1030427): 32 µg/mL | MIC ([1]; strain 1030928): > 512 µg/mL | MIC ([1]; strain 1031191): 64 µg/mL | MIC ([1]; strain 1032669): 64 µg/mL | MIC ([1]; strain 1034880): 64 µg/mL | MIC ([1]; strain 1034912): 64 µg/mL | MIC ([1]; strain 1034925): 64 µg/mL | MIC ([1]; strain 1035788): 32 µg/mL | MIC ([1]; strain 1035794): 16 µg/mL | MIC ([1]; strain 1035825): 64 µg/mL | MIC ([1]; strain 1036045): 64 µg/mL | MIC ([1]; strain 1036068): 64 µg/mL | MIC ([1]; strain 1036768): > 512 µg/mL | MIC ([1]; strain 1036781): 32 µg/mL | MIC ([1]; strain 1036882): 16 µg/mL | MIC ([1]; strain 1036921): 32 µg/mL | MIC ([1]; strain 1037193): 32 µg/mL | MIC ([1]; strain 1037256): 32 µg/mL | MIC ([1]; strain 1037479): > 512 µg/mL | MIC ([1]; strain 1037714): 4 µg/mL | MIC ([1]; strain 1037732): 32 µg/mL | MIC ([1]; strain 1037738): 32 µg/mL | MIC ([1]; strain 1037747): > 512 µg/mL | MIC ([1]; strain 1039502): > 512 µg/mL | MIC ([1]; strain 1039515): 64 µg/mL | MIC ([1]; strain 1039518): 64 µg/mL | MIC ([1]; strain 1040900): 64 µg/mL | MIC ([1]; strain 1040917): > 512 µg/mL | MIC ([1]; strain 1042182): 32 µg/mL | MIC50 [2]: 32 µg/mL | MIC90 [2]: 128 µg/mL | MIC ([2]; read-out: Minimum inhibitory concentration (MIC), strain 0273 (ADC-25, OXA-23, OXA-66)): 32 µg/mL | MIC ([2]; read-out: Minimum inhibitory concentration (MIC), strain 0274 (TEM-1D, ADC-25, OXA-66, OXA-72)): 32 µg/mL | MIC ([2]; read-out: Minimum inhibitory concentration (MIC), strain 0275 (TEM-1D, ADC-25, OXA-23, OXA-66)): 32 µg/mL | MIC ([2]; read-out: Minimum inhibitory concentration (MIC), strain 0276 (enzyme content ND)): 128 µg/mL | MIC ([2]; read-out: Minimum inhibitory concentration (MIC), strain 0277 (TEM-1B, OXA-65, OXA-24)): 128 µg/mL | MIC ([2]; read-out: Minimum inhibitory concentration (MIC), strain 0278 (TEM-1D, ADC-25, OXA-23, OXA-66)): 32 µg/mL | MIC ([2]; read-out: Minimum inhibitory concentration (MIC), strain 0279 (TEM-1D, ADC-25, OXA-23, OXA-66)): 32 µg/mL | MIC ([2]; read-out: Minimum inhibitory concentration (MIC), strain 0280 (TEM-1D, ADC-25, OXA-66)): 16 µg/mL | MIC ([2]; read-out: Minimum inhibitory concentration (MIC), strain 0281 (TEM-1D, ADC-25, OXA-82)): 16 µg/mL | MIC ([2]; read-out: Minimum inhibitory concentration (MIC), strain 0282 (TEM-1D, ADC-25, OXA-23, OXA-66)): 64 µg/mL | MIC ([2]; read-out: Minimum inhibitory concentration (MIC), strain 0283 (TEM-1D, ADC-25, OXA-23, OXA-66)): 16 µg/mL | MIC ([2]; read-out: Minimum inhibitory concentration (MIC), strain 0284 (TEM-1B, OXA-65, OXA-24)): 32 µg/mL | MIC ([2]; read-out: Minimum inhibitory concentration (MIC), strain 0285 (TEM-1B, OXA-65, OXA-24)): 32 µg/mL | MIC ([2]; read-out: Minimum inhibitory concentration (MIC), strain 0286 (ADC-25, OXA-66, OXA-24)): 32 µg/mL | MIC ([2]; read-out: Minimum inhibitory concentration (MIC), strain 0287 (ADC-25, OXA-66, OXA-72)): 32 µg/mL | MIC ([2]; read-out: Minimum inhibitory concentration (MIC), strain 0288 (ADC-25, OXA-23, OXA-66)): 128 µg/mL | MIC ([2]; read-out: Minimum inhibitory concentration (MIC), strain 0289 (ADC-25, OXA-66, OXA-72)): 32 µg/mL | MIC ([2]; read-out: Minimum inhibitory concentration (MIC), strain 0290 (TEM-1D, ADC-25, OXA-23, OXA-66)): 32 µg/mL | MIC ([2]; read-out: Minimum inhibitory concentration (MIC), strain 0291 (TEM-1D, ADC-25, OXA-23, OXA-66)): 8 µg/mL | MIC ([2]; read-out: Minimum inhibitory concentration (MIC), strain 0292 (OXA-66, OXA-72)): 32 µg/mL | MIC ([2]; read-out: Minimum inhibitory concentration (MIC), strain 0293 (OXA-66, OXA-72)): 16 µg/mL | MIC ([2]; read-out: Minimum inhibitory concentration (MIC), strain 0294 (TEM-1B, OXA-23, OXA-65)): 32 µg/mL | MIC ([2]; read-out: Minimum inhibitory concentration (MIC), strain 0295 (TEM-1D, ADC-25, OXA-23, OXA-66)): 32 µg/mL | MIC ([2]; read-out: Minimum inhibitory concentration (MIC), strain 0296 (ADC-25, OXA-23, OXA-223)): 64 µg/mL | MIC ([2]; read-out: Minimum inhibitory concentration (MIC), strain 0297 (ADC-25, OXA-23, OXA-66)): 32 µg/mL | MIC ([2]; read-out: Minimum inhibitory concentration (MIC), strain 0298 (TEM-1D, ADC-25, OXA-66, OXA-237)): 32 µg/mL | MIC ([2]; read-out: Minimum inhibitory concentration (MIC), strain 0299 (PER-7, OXA-23, OXA-203)): 128 µg/mL | MIC ([2]; read-out: Minimum inhibitory concentration (MIC), strain 0300 (ADC-25, OXA-66)): 16 µg/mL | MIC ([2]; read-out: Minimum inhibitory concentration (MIC), strain 0301 (ADC-25, OXA-66, OXA-72)): 128 µg/mL | MIC ([2]; read-out: Minimum inhibitory concentration (MIC), strain 0302 (OXA-23, OXA-82)): 16 µg/mL | MIC ([2]; read-out: Minimum inhibitory concentration (MIC), strain 0303 (ADC-25, OXA-23, OXA-66)): 16 µg/mL | MIC ([2]; read-out: Minimum inhibitory concentration (MIC), strain 0304 (ADC-25, OXA-66, OXA-72)): 32 µg/mL | MIC ([2]; read-out: Minimum inhibitory concentration (MIC), strain 0305 (TEM-1B, OXA-65, OXA-24)): 16 µg/mL | MIC ([2]; read-out: Minimum inhibitory concentration (MIC), strain 0306 (TEM-1B, OXA-65, OXA-24)): 128 µg/mL | MIC ([2]; read-out: Minimum inhibitory concentration (MIC), strain 0307 (ADC-25, OXA-66, OXA-237)): 32 µg/mL | MIC ([2]; read-out: Minimum inhibitory concentration (MIC), strain 0308 (TEM-1D, ADC-25, OXA-71)): 16 µg/mL | MIC ([2]; read-out: Minimum inhibitory concentration (MIC), strain 0309 (OXA-23, OXA-82)): 64 µg/mL | MIC ([2]; read-out: Minimum inhibitory concentration (MIC), strain 0310 (OXA-23, OXA-82)): 32 µg/mL | MIC ([2]; read-out: Minimum inhibitory concentration (MIC), strain 0311 (ADC-25, OXA-23, OXA-82)): 128 µg/mL | MIC ([2]; read-out: Minimum inhibitory concentration (MIC), strain 0312 (OXA-69)): 32 µg/mL | MIC ([2]; read-out: Minimum inhibitory concentration (MIC), strain 0313 (TEM-1D, OXA-23, OXA-69)): 64 µg/mL | MIC ([2]; read-out: Minimum inhibitory concentration (MIC), strain 157834 (enzyme content ND)): 16 µg/mL | MIC ([2]; read-out: Minimum inhibitory concentration (MIC), strain 157842 (enzyme content ND)): 4 µg/mL | MIC ([2]; read-out: Minimum inhibitory concentration (MIC), strain 157876 (enzyme content ND)): 8 µg/mL | MIC ([2]; read-out: Minimum inhibitory concentration (MIC), strain 157901 (enzyme content ND)): 16 µg/mL | MIC ([2]; read-out: Minimum inhibitory concentration (MIC), strain 161750 (enzyme content ND)): 128 µg/mL | MIC ([2]; read-out: Minimum inhibitory concentration (MIC), strain 161752 (enzyme content ND)): 16 µg/mL | MIC ([2]; read-out: Minimum inhibitory concentration (MIC), strain 161755 (enzyme content ND)): 8 µg/mL | MIC ([2]; read-out: Minimum inhibitory concentration (MIC), strain 161756 (enzyme content ND)): 8 µg/mL | MIC ([2]; read-out: Minimum inhibitory concentration (MIC), strain 161760 (enzyme content ND)): 32 µg/mL | MIC ([2]; read-out: Minimum inhibitory concentration (MIC), strain 161762 (enzyme content ND)): 8 µg/mL
Compound: CO/N=C(\C(=O)N[C@@H]1C(=O)N2C(C(=O)[O-])=C(C[N+]3(C)CCCC3)CS[C@H]12)c1csc(N)n1 [FEP, cefepime]
